Measurements reported in US6589970B2, “6-(aryl-amido or aryl-amidomethyl)-naphthalen-2-yloxy-acidic derivatives as inhibitors of plasminogen activator inhibitor type-1 (PAI-1)” (Wyeth, priority 2001, dated 2003).
Structures can show the parent of a compound that is named as a salt.

Assays:
[1] = target: T1, recombinant human plasminogen activator inhibitor-1 (PAI-1) (Homo sapiens, UniProt P05121); assay: Primary Screen for the PAI-1 Inhibition; type: biochemical; conditions: for inhibition at 25 µM: 25 μM test compound, read-out: % Inhib. 25 μM; for inhibition at 100 µM: read-out: % Inhib. 100 μM
T1 construct: purchased Molecular Innovations, Royal Oak, Mich
T1 sequence (P05121 24-402): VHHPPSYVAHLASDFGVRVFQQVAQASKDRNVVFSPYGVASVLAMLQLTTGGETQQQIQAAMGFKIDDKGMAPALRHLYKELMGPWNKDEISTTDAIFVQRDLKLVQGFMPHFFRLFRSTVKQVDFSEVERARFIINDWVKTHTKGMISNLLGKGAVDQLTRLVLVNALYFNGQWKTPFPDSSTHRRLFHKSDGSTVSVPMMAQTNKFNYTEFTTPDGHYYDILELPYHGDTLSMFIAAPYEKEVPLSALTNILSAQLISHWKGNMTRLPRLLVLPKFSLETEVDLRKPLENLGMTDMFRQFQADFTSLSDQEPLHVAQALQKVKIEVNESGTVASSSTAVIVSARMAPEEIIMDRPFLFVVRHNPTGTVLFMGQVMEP
Procedure: Test compounds are dissolved in DMSO at a final concentration of 10 mM, then diluted 100× in physiologic buffer. The inhibitory assay is initiated by the addition of the test compound (1-100 μM final concentration, maximum DMSO concentration of 0.2%) in a pH 6.6 buffer containing 140 nM recombinant human plasminogen activator inhibitor-1 (PAI-1; Molecular Innovations, Royal Oak, Mich.). Following a 1 hour incubation at room temperature, 70 nM of recombinant human tissue plasminogen activator (tPA) is added, and the combination of the test compound, PAI-1 and tPA is incubated for an additional 30 minutes. Following the second incubation, Spectrozyme-tPA (American Diagnostica, Greenwich, Conn.), a chromogenic substrate for tPA, is added and absorbance read at 405 nm at 0 and 60 minutes. Relative PAI-1 inhibition is equal to the residual tPA activity in the presence of the test compound and PAI-1. Control treatments include the complete inhibition of tPA by PAI-1 at the molar ratio employed (2:1), and the absence of any effect of the test compound on tPA alone.

inhibition at 25 µM [1] [%]	inhibition at 100 µM ([1]; 100 μM test compound) [%]	melting point [°C]	% Inhib. 100 μM ([1]; 100 μM test compound) [%]	Compound
28	89	> 275	–	CCCCc1oc2ccccc2c1C(=O)NCc1ccc2cc(OCC(=O)[O-])ccc2c1.[Na+] [Example 9, Sodium; (6-{[(2-butyl-benzofuran-3-carbonyl)-amino]-methyl}-naphthalen-2-yloxy)-acetate]
47	71	212 to 215	–	Cc1c(C(=O)NCc2ccc3c(Br)c(OCc4nnn[nH]4)ccc3c2)oc2ccccc12 [Example 43, 3-Methyl-benzofuran-2-carboxylic acid [5-bromo-6-(1H-tetrazol-5-ylmethoxy)-naphthalen-2-ylmethyl]-amide]
24	69	180 to 183	–	CCCCc1c(C(=O)N(C)Cc2ccc3c(Br)c(OCc4nnn[nH]4)ccc3c2)oc2ccccc12 [Example 39, 3-Butyl-benzofuran-2-carboxylic acid [5-bromo-6-(1H-tetrazol-5-ylmethoxy)-naphthalen-2-ylmethyl]-methyl-amide]
4	46	147 to 149	–	CCCCc1c(C(=O)N(C)Cc2ccc3c(Br)c(OCc4nnn[nH]4)ccc3c2)c2ccccc2n1C [Example 36, 2-Butyl-1-methyl-1H-indole-3-carboxylic acid [5-bromo-6-(1H-tetrazol-5-ylmethoxy)-naphthalen-2-ylmethyl]-methyl-amide]
–	–	147 to 152	–	CCCCc1oc2ccccc2c1C(=O)NCc1ccc2c(-c3ccc(OC)cc3)c(OCc3nnn[nH]3)ccc2c1 (as salt: sodium) [Example 25, 2-Butyl-benzofuran-3-carboxylic [5-(4-methoxy phenyl)-6-(1H-tetrazol-5-ylmethoxy)-naphthalen-2-ylmethyl]-amide, sodium salt]
49	91	164 to 166	–	Cc1c(C(=O)N(C)Cc2ccc3c(Br)c(OCc4nnn[nH]4)ccc3c2)oc2ccccc12 [Example 41, 3-Methyl-benzofuran-2-carboxylic acid [5-bromo-6-(1H-tetrazol-5-ylmethoxy)-naphthalen-2-ylmethyl]-methyl-amide]
12	70	219 to 220	–	CCCc1c(C(=O)NCc2ccc3c(Br)c(OCc4nnn[nH]4)ccc3c2)cnn1-c1ccccc1 [Example 22, 1-Phenyl-5-propyl-1H-pyrazole-4-carboxylic acid [5-bromo-6-(1H-tetrazol-5-ylmethoxy)-naphthalen-2-ylmethyl]-amide]
–	17	56 to 59	–	CN(Cc1ccc2c(Br)c(OCc3nnn[nH]3)ccc2c1)C(=O)c1oc2ccccc2c1CCc1ccccc1 [Example 45, 3-Phenethyl-benzofuran-2-carboxylic acid [5-bromo-6-(1H-tetrazol-5-ylmethoxy)-naphthalen-2-ylmethyl]-methyl-amide]
59	90	119 to 122	–	CN(Cc1ccc2c(Br)c(OCC(=O)O)ccc2c1)C(=O)c1oc2ccccc2c1CCc1ccccc1 [Example 47, (1-Bromo-6-{[methyl-(3-phenethyl-benzofuran-2-carbonyl)-amino]-methyl}-naphthalen-2-yloxy)-acetic acid]
–	–	110 to 113	–	Cc1c(C(=O)NCc2ccc3c(Br)c(OC(Cc4ccccc4)C(=O)O)ccc3c2)oc2ccccc12 (stereo not drawn) [Example 44, 2-(1-Bromo-6-{[(3-methyl-benzofuran-2-carbonyl)-amino]-methyl}-naphthalen-2-yloxy)-3-phenyl-propionic acid]
–	48	162 to 166	–	CCCCc1oc2ccccc2c1C(=O)NCc1ccc2c(-c3ccc(C)cc3)c(OCc3nnn[nH]3)ccc2c1 [Example 23, 2-Butyl-benzofuran-3-carboxylic acid [6-(1H-tetrazol-5-ylmethoxy)-5-p-tolyl-naphthalen-2-ylmethyl]-amide]
–	39	75 to 78	–	CCCCc1oc2ccccc2c1C(=O)NCc1ccc2c(-c3ccc(C(C)(C)C)cc3)c(OCc3nnn[nH]3)ccc2c1 [Example 27, 2-Butyl-benzofuran-3-carboxylic acid [5-(4-tert-butyl-phenyl)-6-(1H-tetrazol-5-ylmethoxy)-naphthalen-2-ylmethyl]-amide]
–	47	242 to 245	–	CCCCc1oc2ccccc2c1C(=O)Nc1ccc2c(Br)c(OCc3nn[nH]n3)ccc2c1 [Example 5, 2-Butyl-benzofuran-3-carboxylic acid [5-bromo-6-(2H-tetrazol-5-ylmethoxy)-naphthalen-2-yl]-amide]
60	96	–	–	CCCCc1c(C(=O)N(C)Cc2ccc3c(Br)c(OCC(Cc4ccccc4)C(=O)O)ccc3c2)oc2ccccc12 (stereo not drawn) [Example 40, 2-Benzyl-3-(1-bromo-6-{[(3-butyl-benzofuran-2-carbonyl)-methyl-amino]-methyl}-naphthalen-2-yloxy)-propionic acid]
–	–	207 to 210	–	CCCCc1oc2ccccc2c1C(=O)NCc1ccc2cc(OCc3nnn[nH]3)ccc2c1 (as salt: sodium) [Example 8, 2-Butyl-benzofuran-3-carboxylic acid [6-(1H-tetrazol-5-ylmethoxy)-naphthalen-2-ylmethyl]-amide sodium salt]
–	–	–	30	O=C(NCc1ccc2c(Br)c(OC(Cc3ccccc3)C(=O)O)ccc2c1)c1ccc(-c2cccc(C(F)(F)F)c2)o1 (stereo not drawn) [Example 60]
–	–	260	–	CCCCc1oc2ccccc2c1C(=O)NCc1ccc2c(Br)c(OCC(=O)O)ccc2c1 (as salt: sodium) [Example 19, Sodium; (1-bromo-6-{[(2-butyl-benzofuran-3-carbonyl)-amino]-methyl}-naphthalen-2-yloxy)-acetate]
24	51	–	–	O=C(O)COc1ccc2cc(NC(=O)c3cc(-c4ccc(-c5ccccc5)cc4)oc3C(F)(F)F)ccc2c1 [Example 78, {6-[(5-Biphenyl-4-yl-2-trifluoromethyl-furan-3-carbonyl)-amino]-naphthalen-2-yloxy}-acetic acid]
–	34	–	–	O=C(O)COc1ccc2cc(CNC(=O)c3ccc(-c4cccc(C(F)(F)F)c4)o3)ccc2c1 [Example 85, [6-({[5-(3-Trifluoromethyl-phenyl)-furan-2-carbonyl]-amino}-methyl)-naphthalen-2-yloxy]-acetic acid]
–	–	284 to 287	–	CCCCc1oc2ccccc2c1C(=O)Nc1ccc2c(Br)c(OCC(=O)O)ccc2c1 (as salt: sodium) [Example 6, {1-Bromo-6-[(2-butyl-benzofuran-3-carbonyl)-amino]-naphthalen-2-yloxy}-acetic acid sodium salt]
46	95	–	–	CCCc1c(C(=O)N(C)Cc2ccc3c(Br)c(OC(Cc4ccccc4)C(=O)O)ccc3c2)cnn1-c1ccccc1 (stereo not drawn) [Example 66, 2-(1-Bromo-6-{[methyl-(1-phenyl-5-propyl-1H-pyrazole-4-carbonyl)-amino]-methyl}-naphthalen-2-yloxy)-3-phenyl-propionic acid]
